From patent publication US11155525B2 (Sanford Burnham Prebys Medical Discovery Institute, priority 2015, dated 2021)

Molecular target: T1, human apelin receptor (Homo sapiens, UniProt P35414)
T1 construct: host or cells: CHO cells
T1 sequence (P35414 1-380): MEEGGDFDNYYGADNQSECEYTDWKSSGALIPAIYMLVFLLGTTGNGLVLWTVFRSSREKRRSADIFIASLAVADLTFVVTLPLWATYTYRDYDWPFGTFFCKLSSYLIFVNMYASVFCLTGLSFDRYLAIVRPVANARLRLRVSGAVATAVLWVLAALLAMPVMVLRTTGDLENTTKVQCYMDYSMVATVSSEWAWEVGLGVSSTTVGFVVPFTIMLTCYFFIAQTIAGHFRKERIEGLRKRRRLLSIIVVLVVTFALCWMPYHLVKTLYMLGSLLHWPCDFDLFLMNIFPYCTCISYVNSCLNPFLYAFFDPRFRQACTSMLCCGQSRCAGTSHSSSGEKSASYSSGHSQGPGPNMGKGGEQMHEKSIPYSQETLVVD
Test: Measurement of apelin receptor agonist activity (cell-based assay determining the amount of intracellular cAMP)
Settings: CHO cells stably expressing the human apelin receptor, Forskolin 10 μM, 30 minutes, 100% efficacy = [Pyr1]-apelin-13 0.300 μM, concentration giving 50% efficacy
Experimental: Measurement of Apelin Receptor Agonist Activity
The apelin receptor agonist activity of the compound represented by formula (I) or (II) of the present invention was measured by cell-based assay for determining the amount of intracellular cAMP.
CHO cells (DiscoveRx Corp.) stably expressing the human apelin receptor were inoculated to wells of a microtiter plate and cultured overnight at 37° C. under conditions of 5% CO2.
Each test compound and Forskolin were added to the wells at the same time. Specifically, the test compound dissolved in DMSO was diluted with a Forskolin-containing buffer [DMEM/F-12, HEPES, no phenol red (#11039, GIBCO)] to prepare a mixed solution containing the test compound at a final concentration of […] (common ratio: 3, serial dilution: 11), Forskolin at a final concentration of 10 μM, and DMSO at a final concentration of 0.3% v/v, which was then added to the wells (N═4).
After 30 minutes, the cells were lysed, and HitHunter cAMP XS+ Assay #90-0075L (DiscoveRx Corp.) was added to the cell lysate. The mixture was left overnight, and the resulting chemiluminescence signals were then detected using Analyst GT (Molecular Devices LLC.) to determine the amount of cAMP.
The amount of cAMP determined by the addition of a positive control [Pyr1]-apelin-13 (final concentration: 0.300 μM) and Forskolin (final concentration: 10 μM) at the same time was used as an index to define 100% efficacy. The amount of cAMP determined by the addition of Forskolin (final concentration: 10 μM) alone was used as an index to define 0% efficacy.
A dose response curve was prepared from the final concentration of the test compound and the determined amount of cAMP using Sigmaplot 12.0.

In order of rising EC50:
1. COc1cccc(OC)c1-n1c(SC(C(=O)O)c2cccc3ccccc23)nnc1-c1ccc(C)o1 (stereo not shown) [Example 38, {[4-(2,6-Dimethoxyphenyl)-5-(5-methylfuran-2-yl)-4H-1,2,4-triazol-3-yl]sulfanyl}(naphthalen-1-yl)acetic acid]  9 nM
2. COc1cccc(OC)c1-n1c(SC(C(=O)O)c2ccccc2)nnc1-c1ccc(C)o1 (stereo not shown) [Example 35, {[4-(2,6-Dimethoxyphenyl)-5-(5-methylfuran-2-yl)-4H-1,2,4-triazol-3-yl]sulfanyl}(phenyl)acetic acid]  10 nM
3. COc1cccc(OC)c1-n1c(SC(Cc2ccccc2)C(=O)O)nnc1-c1ccc(C)o1 (stereo not shown) [Example 39, 2-{[4-(2,6-Dimethoxyphenyl)-5-(5-methylfuran-2-yl)-4H-1,2,4-triazol-3-yl]sulfanyl}-3-phenylpropanoic acid]  11 nM
4. CCCC(Sc1nnc(-c2ccc(C)o2)n1-c1c(OC)cccc1OC)C(=O)O (stereo not shown) [Example 42, 2-{[4-(2,6-Dimethoxyphenyl)-5-(5-methylfuran-2-yl)-4H-1,2,4-triazol-3-yl]sulfanyl}pentanoic acid]  12 nM
5. COc1cccc(OC)c1-n1c(-c2ccc(C(=O)O)cc2)nnc1-c1ccc(C)o1 [Example 48, 4-[4-(2,6-Dimethoxyphenyl)-5-(5-methylfuran-2-yl)-4H-1,2,4-triazol-3-yl]benzoic acid]  22 nM
6. COc1cccc(OC)c1-n1c(SC(C(=O)O)C(C)C)nnc1-c1ccc(C)o1 (stereo not shown) [Example 43, 2-{[4-(2,6-Dimethoxyphenyl)-5-(5-methylfuran-2-yl)-4H-1,2,4-triazol-3-yl]sulfanyl}-3-methylbutanoic acid]  39 nM
7. COc1cccc(OC)c1-n1c(SC(C)C(=O)O)nnc1-c1ccc(C)o1 (stereo not shown) [Example 41, 2-{[4-(2,6-Dimethoxyphenyl)-5-(5-methylfuran-2-yl)-4H-1,2,4-triazol-3-yl]sulfanyl}propanoic acid]  45 nM
8. COc1cccc(OC)c1-n1c(/C=C\C(=O)O)nnc1-c1ccc(C)o1 [Example 56, (2Z)-3-[4-(2,6-Dimethoxyphenyl)-5-(5-methylfuran-2-yl)-4H-1,2,4-triazol-3-yl]prop-2-enoic acid]  48 nM
9. COc1cccc(OC)c1-n1c(-c2cccc(C(=O)O)c2)nnc1-c1ccc(C)o1 [Example 46, 3-[4-(2,6-Dimethoxyphenyl)-5-(5-methylfuran-2-yl)-4H-1,2,4-triazol-3-yl]benzoic acid]  96 nM
10. COc1cccc(OC)c1-n1c(SC(C)(C)C(=O)O)nnc1-c1ccc(C)o1 [Example 36, 2-{[4-(2,6-Dimethoxyphenyl)-5-(5-methylfuran-2-yl)-4H-1,2,4-triazol-3-yl]sulfanyl}-2-methylpropanoic acid]  108 nM
11. CCOC(=O)C(=O)/C=C/c1nnc(-c2ccc(C)o2)n1-c1c(OC)cccc1OC [Example 51, Ethyl (3E)-4-[4-(2,6-dimethoxyphenyl)-5-(5-methylfuran-2-yl)-4H-1,2,4-triazol-3-yl]-2-oxobut-3-enoate]  111 nM
12. COc1ccnc(OC)c1-n1c(SCC(=O)O)nnc1-c1ccc(C)o1 [Example 34, {[4-(2,4-Dimethoxypyridin-3-yl)-5-(5-methylfuran-2-yl)-4H-1,2,4-triazol-3-yl]sulfanyl}acetic acid]  152 nM
13. COc1cccc(OC)c1-n1c(/C=C/c2cc(=O)n3cc(C)ccc3n2)nnc1-c1ccc(C)o1 [Example 52, 2-{(E)-2-[4-(2,6-Dimethoxyphenyl)-5-(5-methylfuran-2-yl)-4H-1,2,4-triazol-3-yl]ethenyl}-7-methyl-4H-pyrido[1,2-a]pyrimidin-4-one]  217 nM
14. COc1cccc(OC)c1-n1c(-c2ccc(C)o2)nnc1-c1ccccc1C(=O)O [Example 59, 2-[4-(2,6-Dimethoxyphenyl)-5-(5-methylfuran-2-yl)-4H-1,2,4-triazol-3-yl]benzoic acid]  349 nM
15. COc1cccc(OC)c1-n1c(SCCCCC(=O)O)nnc1-c1ccc(C)o1 [Example 49, 5-{[4-(2,6-Dimethoxyphenyl)-5-(5-methylfuran-2-yl)-4H-1,2,4-triazol-3-yl]sulfanyl}pentanoic acid]  393 nM
16. COC(=O)c1ccc(-c2nnc(-c3ccc(C)o3)n2-c2c(OC)cccc2OC)cc1 [Example 47, Methyl 4-[4-(2,6-dimethoxyphenyl)-5-(5-methylfuran-2-yl)-4H-1,2,4-triazol-3-yl]benzoate]  419 nM
17. COC(=O)C(Sc1nnc(-c2ccc(C)o2)n1-c1c(OC)cccc1OC)c1cccc2ccccc12 (stereo not shown) [Example 37, Methyl {[4-(2,6-dimethoxyphenyl)-5-(5-methylfuran-2-yl)-4H-1,2,4-triazol-3-yl]sulfanyl}(naphthalen-1-yl)acetate]  825 nM
18. COc1cccc(OC)c1-n1c(SCc2ccccc2)nnc1-c1ccc(C)o1 [Example 40, 3-(Benzylsulfanyl)-4-(2,6-dimethoxyphenyl)-5-(5-methylfuran-2-yl)-4H-1,2,4-triazole]  1110 nM
19. COc1cccc(OC)c1-n1c(/C=C/C(=O)N(C)OC)nnc1-c1ccc(C)o1 [Example 54, (2E)-3-[4-(2,6-Dimethoxyphenyl)-5-(5-methylfuran-2-yl)-4H-1,2,4-triazol-3-yl]-N-methoxy-N-methylprop-2-enamide]  1200 nM
20. COc1cccc(OC)c1-n1c(Br)nnc1-c1ccc(C)o1 [Example 44, 3-Bromo-4-(2,6-dimethoxyphenyl)-5-(5-methylfuran-2-yl)-4H-1,2,4-triazole]  1210 nM
21. COc1cccc(OC)c1-n1c(-c2ccccc2)nnc1-c1ccc(C)o1 [Example 57, 4-(2,6-Dimethoxyphenyl)-3-(5-methylfuran-2-yl)-5-phenyl-4H-1,2,4-triazole]  1210 nM
22. COc1cccc(OC)c1-n1c(SCC(=O)O)cnc1-c1ccc(C)o1 [Example 60, {[1-(2,6-Dimethoxyphenyl)-2-(5-methylfuran-2-yl)-1H-imidazol-5-yl]sulfanyl}acetic acid]  1300 nM
23. COC(=O)c1cccc(-c2nnc(-c3ccc(C)o3)n2-c2c(OC)cccc2OC)c1 [Example 45, Methyl 3-[4-(2,6-dimethoxyphenyl)-5-(5-methylfuran-2-yl)-4H-1,2,4-triazol-3-yl]benzoate]  1320 nM
24. COc1cccc(OC)c1-n1c(SCCCCCC(=O)O)nnc1-c1ccc(C)o1 [Example 50, 6-{[4-(2,6-Dimethoxyphenyl)-5-(5-methylfuran-2-yl)-4H-1,2,4-triazol-3-yl]sulfanyl}hexanoic acid]  1320 nM
25. COC(=O)/C=C\c1nnc(-c2ccc(C)o2)n1-c1c(OC)cccc1OC [Example 55, Methyl (2Z)-3-[4-(2,6-dimethoxyphenyl)-5-(5-methylfuran-2-yl)-4H-1,2,4-triazol-3-yl]prop-2-enoate]  1920 nM
26. COc1cccc(OC)c1-n1c(SCC(=O)O)nnc1C1CCCC1 [Example 33, {[5-Cyclopentyl-4-(2,6-dimethoxyphenyl)-4H-1,2,4-triazol-3-yl]sulfanyl}acetic acid]  2440 nM
27. COc1cccc(OC)c1-n1c(/C=C/C#N)nnc1-c1ccc(C)o1 [Example 53, (2E)-3-[4-(2,6-Dimethoxyphenyl)-5-(5-methylfuran-2-yl)-4H-1,2,4-triazol-3-yl]prop-2-enenitrile]  2650 nM
28. COC(=O)c1ccccc1-c1nnc(-c2ccc(C)o2)n1-c1c(OC)cccc1OC [Example 58, Methyl 2-[4-(2,6-dimethoxyphenyl)-5-(5-methyl-2-furyl)-4H-1,2,4-triazol-3-yl]benzoate]  2800 nM
